What was measured:
Test in all cases: relative viability (nuclei count vs DMSO), 5 days (fraction); higher = more cells survive
KN-93 + AZD7762 = compound: CN(C/C=C/C1=CC=C(C=C1)Cl)CC2=CC=CC=C2N(CCO)S(=O)(=O)C3=CC=C(C=C3)OC [KN-93] + NC(=O)Nc1cc(-c2cccc(F)c2)sc1C(=O)N[C@H]1CCCNC1 [AZD7762] (partner 0.2 µM)
Outline: (§1)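 Relative viability divides the nuclei count in treated wells by that in vehicle wells. Lung cancer cell lines were seeded in 1536-well plates, dosed by pin tool the next day, and fixed and stained after 5 days in one step with final 0.05% Triton X-100, 1% formaldehyde and 1 ug/ml Hoechst. Dosing was a single drug or a fixed anchor-drug dose plus five library-drug doses (not always all listed) in √10 steps, and values are medians of duplicate plates imaged at 4×.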

KN-93 + Crizotinib = compound: CN(C/C=C/C1=CC=C(C=C1)Cl)CC2=CC=CC=C2N(CCO)S(=O)(=O)C3=CC=C(C=C3)OC [KN-93] + C[C@@H](Oc1cc(-c2cnn(C3CCNCC3)c2)cnc1N)c1c(Cl)ccc(F)c1Cl [Crizotinib] (partner 1 µM)
Outline: as §1

KN-93 + Pictilisib = compound: CN(C/C=C/C1=CC=C(C=C1)Cl)CC2=CC=CC=C2N(CCO)S(=O)(=O)C3=CC=C(C=C3)OC [KN-93] + CS(=O)(=O)N1CCN(Cc2cc3nc(-c4cccc5[nH]ncc45)nc(N4CCOCC4)c3s2)CC1 [Pictilisib] (partner 1 µM)
Outline: as §1

KN-93 + Trametinib = compound: CN(C/C=C/C1=CC=C(C=C1)Cl)CC2=CC=CC=C2N(CCO)S(=O)(=O)C3=CC=C(C=C3)OC [KN-93] + CC(=O)Nc1cccc(-n2c(=O)n(C3CC3)c(=O)c3c(Nc4ccc(I)cc4F)n(C)c(=O)c(C)c32)c1 [Trametinib] (partner 0.02 µM)
Outline: as §1

KN-93 + Olaparib = compound: CN(C/C=C/C1=CC=C(C=C1)Cl)CC2=CC=CC=C2N(CCO)S(=O)(=O)C3=CC=C(C=C3)OC [KN-93] + O=C(c1cc(Cc2n[nH]c(=O)c3ccccc23)ccc1F)N1CCN(C(=O)C2CC2)CC1 [Olaparib] (partner 8 µM)
Outline: as §1

Cell Line | relative viability (KN-93 + AZD7762; first compound 0.08 µM) | relative viability (KN-93 + AZD7762; first compound 0.253 µM) | relative viability (KN-93 + AZD7762; first compound 2.53 µM) | relative viability (KN-93 + AZD7762; first compound 8 µM) | relative viability (KN-93 + Crizotinib; first compound 0.08 µM) | relative viability (KN-93 + Crizotinib; first compound 0.253 µM) | relative viability (KN-93 + Crizotinib; first compound 2.53 µM) | relative viability (KN-93 + Crizotinib; first compound 8 µM) | relative viability (KN-93 + Pictilisib; first compound 0.08 µM) | relative viability (KN-93 + Pictilisib; first compound 0.253 µM) | relative viability (KN-93 + Pictilisib; first compound 2.53 µM) | relative viability (KN-93 + Pictilisib; first compound 8 µM) | relative viability (KN-93 + Trametinib; first compound 0.08 µM) | relative viability (KN-93 + Trametinib; first compound 0.253 µM) | relative viability (KN-93 + Trametinib; first compound 2.53 µM) | relative viability (KN-93 + Trametinib; first compound 8 µM) | relative viability (KN-93 + Olaparib; first compound 0.08 µM) | relative viability (KN-93 + Olaparib; first compound 0.253 µM) | relative viability (KN-93 + Olaparib; first compound 2.53 µM) | relative viability (KN-93 + Olaparib; first compound 8 µM)
EPLC-272H | 0.195 | 0.2 | 0.527 | 0.347 | 1.05 | 1.01 | 1.04 | 0.661 | 0.338 | 0.365 | 0.294 | 0.276 | 0.289 | 0.279 | 0.283 | 0.23 | 0.466 | 0.681 | 0.913 | 0.267
RERF-LC-KJ | 0.707 | 0.898 | 1 | 0.753 | 0.803 | 0.848 | 0.917 | 0.639 | 0.582 | 0.486 | 0.598 | 0.332 | 0.924 | 0.869 | 0.83 | 0.624 | 0.938 | 0.97 | 0.836 | 0.545
EKVX | 0.623 | 0.515 | 0.73 | 0.354 | 0.642 | 0.995 | 0.81 | 0.719 | 0.396 | 0.329 | 0.437 | 0.39 | 0.359 | 0.285 | 0.341 | 0.279 | 0.761 | 0.558 | 0.802 | 0.669
LK-2 | 0.419 | 0.366 | 0.428 | 0.3 | 0.214 | 0.199 | 0.216 | 0.27 | 0.683 | 0.679 | 0.725 | 0.314 | 0.715 | 0.867 | 0.929 | 0.78 | 0.79 | 0.643 | 0.89 | 0.582
NCI-H596 | 1 | 1.08 | 1.11 | 0.845 | 0.906 | 1.09 | 1.03 | 0.691 | 0.419 | 0.361 | 0.381 | 0.368 | 0.708 | 0.847 | 0.836 | 0.586 | 0.737 | 0.507 | 0.658 | 0.642
NCI-H322M | 0.549 | 0.53 | 0.555 | 0.51 | 1.08 | 0.982 | 0.896 | 0.905 | 0.496 | 0.423 | 0.531 | 0.51 | 0.478 | 0.575 | 0.488 | 0.442 | 0.766 | 0.817 | 0.706 | 0.689
NCI-H1651 | 0.394 | 0.505 | 0.526 | 0.353 | 0.846 | 0.959 | 0.9 | 0.732 | 0.45 | 0.658 | 0.532 | 0.477 | 0.79 | 0.886 | 0.689 | 0.683 | 0.203 | 0.178 | 0.199 | 0.179
IA-LM |  |  |  |  | 0.745 | 0.822 | 0.975 | 0.431 | 0.27 | 0.309 | 0.767 | 0.349 |  |  |  |  | 1.05 | 0.656 | 0.933 | 0.579
NCI-H1734 | 0.465 | 0.627 | 0.597 | 0.441 | 0.646 | 0.752 | 0.74 | 0.421 | 0.534 | 0.548 | 0.492 | 0.29 | 0.624 | 0.775 | 0.653 | 0.405 | 0.496 | 0.677 | 0.611 | 0.518
SK-MES-1 |  |  |  |  | 1.05 | 0.979 | 1.27 | 0.8 | 0.332 | 0.327 | 0.419 | 0.253 | 0.561 | 0.493 | 0.514 | 0.407 | 0.648 | 0.665 | 0.935 | 0.333
201T | 0.616 | 0.707 | 0.658 | 0.619 | 1.01 | 1.05 | 1.01 | 0.973 | 0.756 | 0.583 | 0.672 | 0.63 | 0.714 | 0.754 | 0.711 | 0.599 | 0.847 | 0.857 | 0.904 | 0.706
ChaGo-K-1 | 0.797 | 0.928 | 0.934 | 0.713 | 1.12 | 1.23 | 1.11 | 0.722 | 1.27 | 0.851 | 0.718 | 0.454 | 0.906 | 1.03 | 0.79 | 0.785 | 0.388 | 0.402 | 0.442 | 0.38
HCC-366 | 0.269 | 0.221 | 0.286 | 0.0943 |  | 0.609 | 0.68 | 0.129 | 0.117 | 0.0961 | 0.134 | 0.107 | 0.258 | 0.305 | 0.336 | 0.162 | 0.298 | 0.318 | 0.422 | 0.2
NCI-H460 | 0.563 | 0.556 | 0.731 | 0.328 | 0.387 | 0.985 | 1.33 | 0.449 | 0.301 | 0.329 | 0.465 | 0.117 | 0.167 | 0.111 | 0.195 | 0.0953 | 0.286 | 0.468 | 0.586 | 0.305
NCI-H1355 | 0.822 | 0.694 | 0.826 | 0.703 | 0.915 | 1.11 | 1.15 | 0.837 | 0.391 | 0.352 | 0.389 | 0.295 | 0.436 | 0.324 | 0.375 | 0.343 | 0.628 | 0.67 | 0.766 | 0.477
EMC-BAC-2 | 1.22 | 1.28 | 1.2 | 0.872 | 0.773 | 0.792 | 0.772 | 0.573 | 0.477 | 0.608 | 0.542 | 0.433 | 0.912 | 0.826 | 0.945 | 0.714 | 0.498 | 0.441 | 0.507 | 0.431
